# US7592160B2, “Processes for producing isomaltose and isomaltitol and use thereof” (Kabushiki Kaisha Hayashibara Seibutsu Kagaku Kenkyujo, priority 2001, dated 2009)
# Assays:
# [1] = tested on: α-isomaltosylglucosaccharide-forming enzyme; assay: Influence of metal ions on α-isomaltosylglucosaccharide-forming enzyme activity (C9 strain); format: biochemical, Bacillus globisporus C9 strain; details: for effect on the enzyme activity, in words: 1 mM, Table 3; for Relative activity (%): in the presence of 1 mM of each metal-ion, None = 100
# Method: (§1) About 20 L of a fresh preparation of the same liquid culture medium as used in the above seed culture were placed in a 30-L fermentor, sterilized by heating, and then cooled to 27° C. and inoculated with 1% (v/v) of the seed culture, followed by culturing at 27° C. and pH 6.0 to 8.0 for 48 hours under aeration-agitation conditions. […] These activities were assayed as follows: The activity of α-isomaltosylglucosaccharide-forming enzyme was assayed by dissolving maltotriose in 100 mM acetate buffer (pH 6.0) to give a concentration of 2% (w/v) for a substrate solution, adding a 0.5 ml of an enzyme solution to a 0.5 ml of the substrate solution, enzymatically reacting the mixture solution at 35° C. for 60 min, suspending the enzymatic reaction by boiling the solution for 10 min, and quantifying maltose, among the isomaltosyl maltose and maltose formed mainly in the reaction mixture, on HPLC disclosed in Experiment 1. One unit activity of α-isomaltosylglucosaccharide-forming enzyme is defined as the enzyme amount that forms one micromole of maltose per minute under the above enzymatic reaction conditions. Throughout the specification, the enzymatic activity of α-isomaltosylglucosaccharide-forming enzyme means the unit(s) assayed as above.
# (§2) The influence of metal ions on the activity of α-isomaltosylglucosaccharide-forming enzyme was examined in the presence of 1 mM of each metal-ion according to the assay for its enzyme activity.
# [2] = tested on: α-isomaltosyl-transferring enzyme; assay: Influence of metal ions on α-isomaltosyl-transferring enzyme activity (C9 strain); format: biochemical, Bacillus globisporus C9 strain; details: for effect on the enzyme activity, in words: 1 mM, Table 4; for Relative activity (%): in the presence of 1 mM of each metal-ion, None = 100
# Method: (§3) The activity of α-isomaltosyl-transferring enzyme was assayed by dissolving panose in 100 mM acetate buffer (pH 6.0) to give a concentration of 2% (w/v) for a substrate solution, adding a 0.5 ml of an enzyme solution to 0.5 ml of the substrate solution, enzymatically reacting the mixture solution at 35° C. for 30 min, suspending the enzymatic reaction by boiling the solution for 10 min, and quantifying glucose, among the cyclotetrasaccharide and glucose formed mainly in the reaction mixture, by the glucose oxidase method. One unit activity of α-isomaltosyl-transferring enzyme is defined as the enzyme amount that forms one micromole of glucose per minute under the above enzymatic reaction conditions. Throughout the specification, the enzymatic activity of α-isomaltosyl-transferring enzyme means the unit(s) assayed as above.
# (§4) The influence of metal ions on the activity of α-isomaltosyl-transferring enzyme was examined in the presence of 1 mM of each metal-ion according to the assay for its enzyme activity.
# [3] = tested on: α-isomaltosylglucosaccharide-forming enzyme; assay: Influence of metal ions on α-isomaltosylglucosaccharide-forming enzyme activity (C11 strain); format: biochemical, Bacillus globisporus C11 strain; details: for effect on the enzyme activity, in words: 1 mM, Table 7; for Relative activity (%): in the presence of 1 mM of each metal-ion, None = 100
# [4] = tested on: α-isomaltosyl-transferring enzyme; assay: Influence of metal ions on α-isomaltosyl-transferring enzyme activity (C11 strain); format: biochemical, Bacillus globisporus C11 strain; details: for effect on the enzyme activity, in words: 1 mM, text on Table 8; for Relative activity (%): in the presence of 1 mM of each metal-ion, None = 100
# Method: as §3, §4
# [5] = tested on: α-isomaltosylglucosaccharide-forming enzyme; assay: Influence of metal ions on α-isomaltosylglucosaccharide-forming enzyme activity (N75 strain); format: biochemical, Bacillus globisporus N75 strain; details: for effect on the enzyme activity, in words: 1 mM, Table 13; for Relative activity (%): in the presence of 1 mM of each metal-ion, None = 100
# Method: as §1, §2
# [6] = tested on: α-isomaltosyl-transferring enzyme; assay: Influence of metal ions on α-isomaltosyl-transferring enzyme activity (N75 strain); format: biochemical, Bacillus globisporus N75 strain; details: for effect on the enzyme activity, in words: 1 mM, Table 14; for Relative activity (%): in the presence of 1 mM of each metal-ion, None = 100
# Method: as §3
# The influence of temperature and pH on the activity of α-isomaltosyl-transferring enzyme was examined in accordance with the assay for its enzyme activity. […] The thermal stability of the enzyme was determined by incubating the testing enzyme solutions in the form of 20 mM acetate buffer (pH 6.0) at prescribed temperatures for 60 min, cooling the resulting enzyme solutions with water, and assaying the remaining enzyme activity of each solution. The pH stability of the enzyme was determined by keeping the testing enzyme solutions in the from of 50 mM buffers having prescribed pHs at 4° C. for 24 hours, adjusting the pH of each solution to 6.0, and assaying the remaining enzyme activity of each solution. […] The influence of metal ions on the activity of α-isomaltosyl-transferring enzyme was examined in the presence of 1 mM of each metal-ion according to the assay for its enzyme activity.
# [7] = tested on: α-isomaltosylglucosaccharide-forming enzyme; assay: Influence of metal ions on α-isomaltosylglucosaccharide-forming enzyme activity (A19 strain); format: biochemical, Arthrobacter globiformis A19 strain; details: for effect on the enzyme activity, in words: 1 mM, Table 19; for Relative activity (%): in the presence of 1 mM of each metal-ion, None = 100
# [8] = tested on: α-isomaltosyl-transferring enzyme; assay: Influence of metal ions on α-isomaltosyl-transferring enzyme activity (S1 strain); format: biochemical, Arthrobacter ramosus S1 strain; details: for effect on the enzyme activity, in words: 1 mM, Table 21; for Relative activity (%): in the presence of 1 mM of each metal-ion, None = 100
# Method: as §3, §4
Structure (SMILES),"effect on the enzyme activity, in words [1]",Relative activity (%) [1],"effect on the enzyme activity, in words [2]",Relative activity (%) [2],"effect on the enzyme activity, in words [3]",Relative activity (%) [3],"effect on the enzyme activity, in words [4]",Relative activity (%) [4],"effect on the enzyme activity, in words [5]",Relative activity (%) [5],"effect on the enzyme activity, in words [6]",Relative activity (%) [6],"effect on the enzyme activity, in words [7]",Relative activity (%) [7],"effect on the enzyme activity, in words [8]",Relative activity (%) [8],Relative activity (%) ([4]; listed as Fe^3+),Relative activity (%) ([6]; listed as Fe^3+),Relative activity (%) ([7]; listed as Fe^3+),Relative activity (%) ([8]; listed as Fe^3+)
[Hg+2] [Hg^2+],strongly inhibited,4%,strongly inhibited,1%,strongly inhibited,4%,strongly inhibited,2%,strongly inhibited,1%,strongly inhibited,0.5%,strongly inhibited,0%,strongly inhibited,0.1%,,,,
[Pb+2] [Pb^2+],,103%,,89%,,101%,,74%,,86%,,69%,,43%,,85%,,,,
[Ba+2] [Ba^2+],also inhibited,65%,,102%,also inhibited,65%,,90%,,84%,,102%,,99%,,97%,,,,
[Co+2] [Co^2+],,100%,,103%,,96%,,89%,,93%,,92%,,93%,,91%,,,,

# Now from value to compound:
"effect on the enzyme activity, in words [1]",Relative activity (%) [1],"effect on the enzyme activity, in words [2]",Relative activity (%) [2],"effect on the enzyme activity, in words [3]",Relative activity (%) [3],"effect on the enzyme activity, in words [4]",Relative activity (%) [4],"effect on the enzyme activity, in words [5]",Relative activity (%) [5],"effect on the enzyme activity, in words [6]",Relative activity (%) [6],"effect on the enzyme activity, in words [7]",Relative activity (%) [7],"effect on the enzyme activity, in words [8]",Relative activity (%) [8],Relative activity (%) ([4]; listed as Fe^3+),Relative activity (%) ([6]; listed as Fe^3+),Relative activity (%) ([7]; listed as Fe^3+),Relative activity (%) ([8]; listed as Fe^3+),Structure (SMILES)
also inhibited,80%,,101%,also inhibited,83%,,93%,,85%,,91%,,102%,,101%,,,,,[Sr+2] [Sr^2+]
,92%,,88%,,91%,,83%,,82%,,75%,,56%,,78%,,,,,[Zn+2] [Zn^2+]
strongly inhibited,20%,not inhibited,104%,strongly inhibited,24%,not inhibited,98%,strongly inhibited,35%,not inhibited,92%,strongly inhibited,2%,neither activated,91%,,,,,"O=C(O)CN(CCN(CC(=O)O)CC(=O)O)CC(=O)O [EDTA, ethylenediaminetetraacetic acid]"
,,,,,,,,,82%,,,,36%,,,88%,90%,35%,75%,[Fe+2] [Fe^2+]
activated,115%,not activated,101%,activated,109%,not activated,91%,activated,108%,not activated,100%,,106%,neither activated,103%,,,,,[Ca+2] [Ca^2+]
strongly inhibited,15%,also inhibited,57%,strongly inhibited,23%,also inhibited,56%,strongly inhibited,7%,also inhibited,15%,strongly inhibited,0%,also inhibited,2%,,,,,[Cu+2] [Cu^2+]
